Legend:
[1] = molecular target: T1, Calmodulin-cyclic-AMP phosphodiesterase (Bos taurus, UniProt P62157); assay: Calmodulin-cyclic-AMP phosphodiesterase inhibitory activity (presence of calmodulin); format: biochemical, bovine; conditions: with calmodulin and CaCl2, pH 7.0, 30° C., 30 minutes
T1 construct: tissue Amano & Co. (calmodulin only); host or cells: phosphodiesterase: bovine heart, partially purified; calmodulin: bovine brain
From the text: (1) Calmodulin: A calmodulin product manufactured by Amano & Co., which was isolated from the brain of bovine, and purified so as to be considered as a single substance with respect to SDS-page (polyacrylamide gel electrophoresis) method.
(§1) (2) Calmodulin-dependent cyclic-AMP phosphodiesterase (EC 3.1.4.17): An enzyme substance isolated from the heart of bovine and purified partially by a method of modified version of the disclosure in H. C. Ho, T. S. Teo, et al.: "Biochim. Biophys. Acta", 429, 461 (1976).
(§2) (3) 5'-Nucleotidase (EC 3.1.3.5): Grade IV substance (isolated from Crotalus adamanteus venom) manufactured by Sigma & Co.
(§3) (4) Others: Remainder of the reagents used in the test were those of reagent grade chemicals manufactured by Wako Pure-Chemical Industries, Ltd.
(§4) Calmodulin inhibitory activity of each of the test compounds was measured by a method of modified version of the disclosure in T. S. Teo and T. H. Wang: "J. Bio. Chem.", 248, 588 (1973).
(2) Calmodulin: One unit thereof stimulates 0.015 activated unit of cyclic-AMP phosphodiesterase to 50% of the maximum activity of the enzyme.
(§5) (3) 5'-Nucleotidase: One unit thereof hydrolyzes 1.0 micromole of inorganic phosphorus from adnosine 5'-monophosphate per minute at pH 9.0 at 37° C.
(1) Calmodulin-cyclic-AMP phosphodiesterase inhibitory activity:
40 mM of Imidazol, 20 mM of MgCl2, 20 mM of CaC12, 0.008 unit of cyclic-AMP phosphodiesterase, 1.0 unit of calmodulin, 0.2 unit of 5'-nucleotidase and 1.0 ml of 10 mM-tris(hydroxymethyl)aminomethane/HCl buffer solution (pH 7.0) containing 0.5 mM of cyclic-AMP were mixed together, and reacted at 30° C. for 30 minutes. Each of the test compounds was dissolved in methanol or N,N-dimethylformamide as the solvent, provided that the quantity of the solvent was not exceed 2% of the total amount of the mixture. After the reaction was completed, the reaction mixture was ice-cooled, and 0.5 ml each of aqueous solutions of 16.5%-trichloroacetic acid, 1%-thiourea, 3%-ammonium ferrous sulfate were respectively added to the reaction mixture. Further, 0.15 ml of 4.4%-ammonium molibdate solution was added to the mixture and the whole of the mixture was stirred, and was centrifuged at 3,000 r.p.m. for 10 minutes. Then, the centrifuged mixture was allowed to stand at a room temperature for 20 minutes. The OD660 nm (optical density at 660 nm) was measured.

[2] = molecular target: T2, Cyclic-AMP phosphodiesterase (Bos taurus, UniProt P14100); assay: Cyclic AMP phosphodiesterase inhibitory activity (absence of calmodulin, EGTA in place of CaCl2); format: biochemical, bovine; conditions: 1 mM EGTA in place of CaCl2; 3 hours
T2 construct: from tissue; host or cells: bovine heart, partially purified
From the text: as §1, §2, §3, §4, §5
(2) Cyclic AMP phosphodiesterase inhibitory activity:
The reaction was conducted by a method similar to that described in (1) as mentioned above, except that 1 mM of EGTA [ethylene glycol-bis(β-amino ethyl ether)-N,N-tetraacetic acid] was used in place of 20 mM of CaCl2. The reaction was conducted for 3 hours.

[3] = test system: SHR-rats (spontaneously hypertensive rats); conditions: 30 mg/kg p.o.
Experimental: Systolic blood pressures and heart beat of SHR-rats (spontaneously hypertensive rats) were determined by a "tail cuff method". Thus the test animal was placed in a thermostat chamber (Type: FR-12RS, manufactured by Isuze & Co.) and was warmed at 40° C. for 15 minutes so as to vasodilate the tail arteria, the systolic blood pressures were measured by an electro sphygmomanometer (Type: PE-300, manufactured by Narco-Biosystems, Inc.) and recorded by an ink-writing recorder (Type: RECTI-HORIZ 8s, manufactured by San-Ei Instrument & Co.). The experiments were conducted under non-anesthetized and semi-confinement conditions. The test compound was orally administered forcedly by using a sonde for oral administration. The test compound was suspended in 0.15%-gum arabic powder aqueous solution so as to make the quantity of the test compound to 2.5 ml/kg. The test animal was not fasted, and the systolic blood pressures (mm-Hg) were measured before the administration (hereinafter referred to as "PRE") and after the administration (8, 24, 30, 48, 54 and 72 hours after the administration) of the test compound. The data of systolic blood pressure measured before the administration are shown in absolute value of mmHg, and the data measured after the administration are shown in the differences from the absolute values.

T2 sequence (P14100 1-514 isoform P14100-2): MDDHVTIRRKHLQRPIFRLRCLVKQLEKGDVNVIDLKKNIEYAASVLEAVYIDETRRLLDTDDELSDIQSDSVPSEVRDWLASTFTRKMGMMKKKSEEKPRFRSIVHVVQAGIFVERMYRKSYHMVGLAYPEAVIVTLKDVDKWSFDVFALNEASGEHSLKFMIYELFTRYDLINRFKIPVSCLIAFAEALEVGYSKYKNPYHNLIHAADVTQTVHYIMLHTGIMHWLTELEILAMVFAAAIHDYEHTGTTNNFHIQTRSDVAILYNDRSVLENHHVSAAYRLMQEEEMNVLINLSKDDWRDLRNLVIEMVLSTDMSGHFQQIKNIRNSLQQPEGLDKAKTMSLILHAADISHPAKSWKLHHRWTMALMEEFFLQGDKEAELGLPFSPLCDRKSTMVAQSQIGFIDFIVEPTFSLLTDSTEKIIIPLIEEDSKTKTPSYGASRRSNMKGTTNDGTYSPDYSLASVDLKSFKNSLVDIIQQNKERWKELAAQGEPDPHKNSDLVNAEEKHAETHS

Row | Compound | IC50 ([1]; read-out: Calmodulin-cyclic-AMP phosphodiesterase IC50 (converted)) [µM] | IC50 [2] [µM] | Calmodulin-cyclic-AMP phosphodiesterase IC50 [1] [µg/mL] | Cyclic-AMP phosphodiesterase IC50 [2] [µg/mL] | Blood pressure after the administration, 24 hours (difference from the absolute value before administration) [3] [mm-Hg] | Blood pressure after the administration, 30 hours (difference from the absolute value before administration) [3] [mm-Hg] | Blood pressure after the administration, 48 hours (difference from the absolute value before administration) [3] [mm-Hg] | Blood pressure after the administration, 54 hours (difference from the absolute value before administration) [3] [mm-Hg] | Blood pressure after the administration, 72 hours (difference from the absolute value before administration) ([3]; 72 hours) [mm-Hg]
1 | COC(=O)C1=C(C)NC(C)=C(C(=O)OC/C=C/c2cccc(O)c2)C1c1cccc([N+](=O)[O-])c1 (stereo not drawn) [Test Compound 25, Methyl 3-(3-hydroxyphenyl)-2(E)propenyl 1,4-dihydro-2,6-dimethyl-4-(3-nitrophenyl)-pyridine-3,5-dicarboxylate] | 1.94 | 53 |  |  |  |  |  |  | 
2 | Methyl 3-(4-hydroxyphenyl)-2(E)-propenyl 1,4-dihydro-2,6-dimethyl-4-(3-nitrophenyl)pyridine-3,5-dicarboxylate [Test Compound 1] |  |  | 4.1 | 60 | -38.6 | -21.2 | -21.0 | -19.2 | 
3 | Methyl 3-(4-hydroxyphenyl)-2-propynyl 1,4-dihydro-2,6-dimethyl-4-(3-nitrophenyl)-pyridine-3,5-dicarboxylate [Test Compound 12] |  |  | 0.78 | 13 | -18.0 | -25.8 | -19.8 | -14.6 | 
4 | Methyl 4-(4-methylthiophenyl)-3(E)-butenyl 1,4-dihydro-2,6-dimethyl-4-(3-nitrophenyl)-pyridine-3,5-dicarboxylate [Test Compound 15] |  |  | 0.062 | 0.23 | -75.4 | -66.8 | -20.8 | -10.6 | -9.6

— patent US5137889A, “Dihydropyridine derivatives and process for preparing the same” (Otsuka Pharmaceutical Co., Ltd., priority 1983, dated 1992)
